This is an account of results in patent US7335814B2, “Transgenic cells expressing glucosyltransferase nucleic acids” (The University of York, priority 2000, dated 2008).

What all share (format): biochemical
One assay addresses T1, recombinant GTase A43 (Arabidopsis thaliana, UniProt O23402).
T1 construct: made in house; host or cells: E. coli
As to the kind of experiment: Specific activity of recombinant GTase producing glucose ester against lignin precursors (HPLC). The following applies: 0.5 ml of potential substrates, 5 mM UDPG, 0.2 μg GTase, 200 μl, 20° C., 30 min.

For a further assay, the target named is T2, recombinant GTase A062 (Arabidopsis thaliana, UniProt Q9LR44).
T2 construct: made in house; host or cells: E. coli
T2 sequence (Q9LR44 1-469): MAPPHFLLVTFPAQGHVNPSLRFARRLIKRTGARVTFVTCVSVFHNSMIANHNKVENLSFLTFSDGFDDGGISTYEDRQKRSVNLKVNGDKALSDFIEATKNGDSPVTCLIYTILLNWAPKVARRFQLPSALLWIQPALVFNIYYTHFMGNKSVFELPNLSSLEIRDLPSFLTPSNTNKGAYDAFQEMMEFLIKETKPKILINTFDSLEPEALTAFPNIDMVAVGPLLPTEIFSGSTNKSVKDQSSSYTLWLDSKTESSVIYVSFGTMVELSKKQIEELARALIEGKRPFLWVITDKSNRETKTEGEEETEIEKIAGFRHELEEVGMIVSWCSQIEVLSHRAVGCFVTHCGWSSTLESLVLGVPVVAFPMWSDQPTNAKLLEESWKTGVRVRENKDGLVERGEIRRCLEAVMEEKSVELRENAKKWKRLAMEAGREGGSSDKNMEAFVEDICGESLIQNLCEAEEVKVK
The assay is described as above. Particulars: 0.5 ml of potential substrates, 5 mM UDPG, 0.2 μg GTase, 200 μl, 20° C., 30 min.

Assay [1] deals with T3, recombinant GTase A119 (Arabidopsis thaliana, UniProt Q9LVR1).
T3 construct: made in house; host or cells: E. coli
T3 sequence (Q9LVR1 1-481): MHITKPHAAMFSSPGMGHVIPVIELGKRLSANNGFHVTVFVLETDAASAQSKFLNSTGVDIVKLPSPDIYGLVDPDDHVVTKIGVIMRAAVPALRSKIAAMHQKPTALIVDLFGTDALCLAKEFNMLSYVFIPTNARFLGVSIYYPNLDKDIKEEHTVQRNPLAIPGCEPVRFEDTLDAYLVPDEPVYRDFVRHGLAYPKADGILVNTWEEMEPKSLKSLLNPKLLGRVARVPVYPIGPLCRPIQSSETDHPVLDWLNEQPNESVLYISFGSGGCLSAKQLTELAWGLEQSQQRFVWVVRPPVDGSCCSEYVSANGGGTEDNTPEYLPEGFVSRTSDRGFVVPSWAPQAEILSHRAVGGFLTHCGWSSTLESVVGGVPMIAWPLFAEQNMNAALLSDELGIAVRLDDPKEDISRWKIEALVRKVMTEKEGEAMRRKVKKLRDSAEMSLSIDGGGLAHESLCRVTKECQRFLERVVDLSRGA
Briefly: Specific activity of recombinant GTase producing O-glucosides against lignin precursors (HPLC). Particulars: 30° C.; ND = not detected.

The next assay addresses T4, recombinant GTase A961 (Arabidopsis thaliana, UniProt O82381).
T4 construct: made in house; host or cells: E. coli
T4 sequence (O82381 1-481): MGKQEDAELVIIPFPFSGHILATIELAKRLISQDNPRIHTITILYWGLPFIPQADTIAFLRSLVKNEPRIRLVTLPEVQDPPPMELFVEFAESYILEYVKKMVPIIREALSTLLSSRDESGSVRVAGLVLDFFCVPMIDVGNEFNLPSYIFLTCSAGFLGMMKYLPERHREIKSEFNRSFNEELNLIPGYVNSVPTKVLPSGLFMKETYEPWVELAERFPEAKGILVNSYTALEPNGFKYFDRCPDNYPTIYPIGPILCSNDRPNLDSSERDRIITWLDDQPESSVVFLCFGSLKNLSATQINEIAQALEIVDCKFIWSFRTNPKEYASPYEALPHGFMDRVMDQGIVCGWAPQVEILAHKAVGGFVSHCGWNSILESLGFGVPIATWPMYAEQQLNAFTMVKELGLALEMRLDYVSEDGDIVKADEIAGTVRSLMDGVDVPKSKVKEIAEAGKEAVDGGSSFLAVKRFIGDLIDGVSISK
The description is as above. Particulars: 30° C.; ND = not detected.

The target of another assay is T5, UGT71C1 (Arabidopsis thaliana, UniProt O82381).
T5 construct: GST (N); made in house; host or cells: E. coli
T5 sequence (O82381 1-481): T4 sequence (O82381 1-481)
As to the kind of experiment: UGT71C1 glucosyltransferase specific activity towards phenolic compounds (reverse-phase HPLC). The following applies: 1 mM phenolic compound, 5 mM UDP-glucose, 50 mM TRIS-HCl pH 7.0, 30° C., 30 min; mean of three replicates ± standard deviation.

The next assay addresses T6, recombinant GTase A41 (Arabidopsis thaliana, UniProt Q5XF20).
T6 construct: made in house; host or cells: E. coli
T6 sequence (Q5XF20 7-490): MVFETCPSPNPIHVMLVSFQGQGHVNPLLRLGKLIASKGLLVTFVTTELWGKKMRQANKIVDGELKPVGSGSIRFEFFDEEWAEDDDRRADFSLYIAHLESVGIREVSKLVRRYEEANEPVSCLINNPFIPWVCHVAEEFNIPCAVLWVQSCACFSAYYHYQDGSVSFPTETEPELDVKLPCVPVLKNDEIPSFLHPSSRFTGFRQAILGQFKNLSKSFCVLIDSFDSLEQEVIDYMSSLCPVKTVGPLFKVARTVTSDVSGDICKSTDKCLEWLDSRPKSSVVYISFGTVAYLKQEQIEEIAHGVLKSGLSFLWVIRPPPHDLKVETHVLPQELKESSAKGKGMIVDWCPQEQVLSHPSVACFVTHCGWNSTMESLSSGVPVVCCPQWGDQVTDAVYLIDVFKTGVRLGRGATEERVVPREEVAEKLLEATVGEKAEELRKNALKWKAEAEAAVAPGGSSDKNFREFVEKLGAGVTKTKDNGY
Briefly: Kinetic studies (Michaelis-Menten) on recombinant GTase producing glucose esters. The following applies: glucose ester formation.

The target of another assay is T7, recombinant GTase A42 (Arabidopsis thaliana, UniProt O23401).
T7 construct: made in house; host or cells: E. coli
T7 sequence (O23401 1-479): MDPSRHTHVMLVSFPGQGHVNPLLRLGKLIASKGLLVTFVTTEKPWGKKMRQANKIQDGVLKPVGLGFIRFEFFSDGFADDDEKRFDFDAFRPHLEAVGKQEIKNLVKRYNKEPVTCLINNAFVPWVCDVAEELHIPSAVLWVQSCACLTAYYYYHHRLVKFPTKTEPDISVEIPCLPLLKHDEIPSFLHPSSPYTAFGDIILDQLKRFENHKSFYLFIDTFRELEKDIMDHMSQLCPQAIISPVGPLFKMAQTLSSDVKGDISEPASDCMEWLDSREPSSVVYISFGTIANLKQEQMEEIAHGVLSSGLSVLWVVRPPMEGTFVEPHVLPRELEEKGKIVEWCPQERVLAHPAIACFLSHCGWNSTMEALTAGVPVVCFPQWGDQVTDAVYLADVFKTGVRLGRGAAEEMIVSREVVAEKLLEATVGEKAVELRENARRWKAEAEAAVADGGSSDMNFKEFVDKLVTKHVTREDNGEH
The description is as above. The following applies: glucose ester formation.

For assay [2], the target named is T3, recombinant GTase A119. As to the kind of experiment: Kinetic studies (Michaelis-Menten) on recombinant GTase producing O-glucosides. The following applies: O-glucoside formation.

As for `O=C(O)/C=C/c1ccc(O)cc1` [p-coumaric acid], the “Specific activity of A43 (substrate converted to glucose ester)” value on recombinant GTase A43 is given as 0.03 nkat/mg. The “Specific activity of A062 (substrate converted to glucose ester)” value at recombinant GTase A062 came out at 2.54 nkat/mg. On recombinant GTase A119 [1], the “Specific activity of A119 (substrate converted to 4-O-glucoside)” value was 0.02 nkat/mg. In addition, the “Specific activity of A961 (substrate converted to 4-O-glucoside)” value on recombinant GTase A961 is listed as 0.01 nkat/mg. Moreover, the “Specific activity (UGT71C1)” value on UGT71C1 came to 0 nkat/mg.
Regarding `COc1cc(/C=C/C(=O)O)ccc1O` [Ferulic acid, ferulic acid], the “Specific activity of A43 (substrate converted to glucose ester)” value at recombinant GTase A43 was 0.04 nkat/mg. Further, the “Specific activity of A062 (substrate converted to glucose ester)” value at recombinant GTase A062 is listed as 0.08 nkat/mg. Moreover, the “Specific activity of A119 (substrate converted to 4-O-glucoside)” value at recombinant GTase A119 [1] is recorded as 14.48 nkat/mg. The “Vmax (A41)” value on recombinant GTase A41 was 11.35 nkat/mg. The “Vmax (A42)” value on recombinant GTase A42 amounted to 18.35 nkat/mg. The “Vmax (A119)” value on recombinant GTase A119 [2] worked out at 18.87 nkat/mg. For the same compound, the “Specific activity (UGT71C1)” value at UGT71C1 was 0 nkat/mg.
